Laboratory results published in the CheMixHub viscosity set.

Assay: xn = mol fraction of the nth substance listed
Conditions: 101 kPa

OCCCOCCCO + NCCN
viscosity [mPa·s]
Conditions | 293.15 K | 298.15 K | 303.15 K | 308.15 K | 313.15 K | 318.15 K
x1 = 0.023 | 1.77 | 1.59 | 1.34 | 1.21 | 1.09 | 0.991
x1 = 0.0474 | 2.1 | 1.86 | 1.55 | 1.4 | 1.24 | 1.13
x1 = 0.0733 | 2.51 | 2.19 | 1.81 | 1.62 | 1.44 | 1.3
x1 = 0.1007 | 3.07 | 2.66 | 2.16 | 1.92 | 1.71 | 1.53
x1 = 0.1299 | 3.75 | 3.23 | 2.59 | 2.28 | 2 | 1.79
x1 = 0.1611 | 4.7 | 4.01 | 3.16 | 2.76 | 2.43 | –
x1 = 0.1943 | 5.97 | 4.99 | 3.9 | 3.34 | 2.88 | –
x1 = 0.23 | 7.72 | 6.39 | 4.91 | 4.16 | 3.55 | –
x1 = 0.2682 | 10.2 | 8.28 | 6.24 | 5.22 | 4.37 | –
x1 = 0.3094 | 13.7 | 10.9 | 8.09 | 6.65 | 5.56 | –
x1 = 0.3538 | 18.7 | 14.7 | 10.7 | 8.62 | 7 | –
x1 = 0.4019 | 25.9 | 19.8 | 14.1 | 11.1 | 8.87 | –
x1 = 0.4541 | 36.7 | 26.7 | 18.6 | 14.4 | 11.2 | –
x1 = 0.5111 | 48.7 | 35.4 | 24.1 | 18.4 | 14.1 | –
x1 = 0.5734 | 63.9 | 45.7 | 30.6 | 22.9 | 17.4 | –
x1 = 0.6418 | 79.4 | 56.4 | 37.3 | 27.6 | 20.7 | –
x1 = 0.7174 | 93.8 | 66 | 43.3 | 31.9 | 23.7 | –
x1 = 0.8013 | 105 | 73.2 | 47.9 | 35.1 | 26 | –
x1 = 0.8949 | 112 | 77.9 | 50.6 | 36.8 | 27.3 | –
